Measurements taken from ChEMBL document CHEMBL1124168 (J Med Chem, 1988).

What was measured:
[1] = target: Vasopressin V2 receptor (Sus scrofa) (UniProt P32307); assay: (§1) In vitro antagonist activity was measured by inhibition of binding of [3H]LVP to renal medullary membrane preparation in pig; format: tissue-based; conditions: Renal medulla
[2] = system: Rattus norvegicus; assay: […] antagonist activity is measured by dose required to lower urine osmolality to 300 mOsm/kg of H2O; format: functional
[3] = target: Adenylate cyclase; assay: In vitro antagonist activity was measured by inhibition of vasopressin-stimulated adenylate cyclase in renal medullary preparation in human
[4] = system: Rattus norvegicus; assay: […] antagonist activity was measured by dose required to lower urine osmolality to 300 mOsm/kg of H2O; format: functional
[5] = system: Canis familiaris; assay: Antagonist activity was measured by maximum urine osmolality with a dose of 100 ug/kg peptide after pretreatment with indomethacin in dog; format: functional, Canis lupus familiaris
[6] = system: Canis familiaris; assay: Antagonist activity was measured by maximum urine flow with a dose of 100 ug/kg peptide; format: functional, Canis lupus familiaris
[7] = system: Canis familiaris; assay: Antagonist activity was measured by maximum urine osmolality with a dose of 100 ug/kg peptide after pretreatment with indomethacin ([…]) in dog; format: functional, Canis lupus familiaris
[8] = target: Vasopressin V2 receptor (Homo sapiens, UniProt P30518); assay: In vitro antagonist activity was measured by inhibition of vasopressin-stimulated adenylate cyclase in renal medullary preparation in human; format: functional, tissue-based, Renal medulla
[9] = species on record: Sus scrofa; assay: as §1; format: functional; conditions: Renal medulla
[10] = target: Vasopressin V2 receptor (Sus scrofa, UniProt P32307); assay: In vitro antagonist activity was measured by inhibition of vasopressin-stimulated adenylate cyclase in renal medullary preparation in pig; format: functional, tissue-based, Renal medulla
[11] = system: Canis familiaris; assay: Agonist activity was measured as maximum urine osmolality with a dose of 100 ug/kg peptide after pretreatment with indomethacin in dog

Chain of Vasopressin V2 receptor (Homo sapiens, UniProt P30518) (P30518 whole entry): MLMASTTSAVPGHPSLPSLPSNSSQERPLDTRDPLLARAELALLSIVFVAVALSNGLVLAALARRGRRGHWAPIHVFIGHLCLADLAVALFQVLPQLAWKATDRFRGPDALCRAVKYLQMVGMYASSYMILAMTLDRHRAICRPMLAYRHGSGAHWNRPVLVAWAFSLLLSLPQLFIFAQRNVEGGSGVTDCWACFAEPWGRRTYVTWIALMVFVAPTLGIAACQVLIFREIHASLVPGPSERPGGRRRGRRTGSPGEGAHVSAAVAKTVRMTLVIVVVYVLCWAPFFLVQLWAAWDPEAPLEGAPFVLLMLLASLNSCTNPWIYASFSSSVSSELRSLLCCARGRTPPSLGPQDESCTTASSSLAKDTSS
Chain of Vasopressin V2 receptor (Sus scrofa, UniProt P32307) (P32307 whole entry): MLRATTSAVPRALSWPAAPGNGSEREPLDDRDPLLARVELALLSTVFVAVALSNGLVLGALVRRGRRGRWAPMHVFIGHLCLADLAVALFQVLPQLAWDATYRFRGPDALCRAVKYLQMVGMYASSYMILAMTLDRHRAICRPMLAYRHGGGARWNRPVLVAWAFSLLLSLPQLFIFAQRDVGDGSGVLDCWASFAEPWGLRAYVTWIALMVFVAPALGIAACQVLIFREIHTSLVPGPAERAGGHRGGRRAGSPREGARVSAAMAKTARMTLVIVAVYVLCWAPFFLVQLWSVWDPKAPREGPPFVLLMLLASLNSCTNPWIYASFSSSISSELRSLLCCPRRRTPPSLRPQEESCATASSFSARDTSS
Chain of Vasopressin V2 receptor (Sus scrofa) (P32307 whole entry): as above

Row | Compound | Ki [8] [nM] | Kb [9] [nM] | ED300 [4] [µg/kg] | U osm [5] [mOsmol kg-1] | Volume [6] [mL/min] | also measured
1 | CCOc1ccc(C[C@H]2NC(=O)CC3(CCCCC3)CCCC(C(=O)N[C@@H](CCCN=C(N)N)C(N)=O)NC(=O)[C@H](CC(N)=O)NC(=O)[C@H](C(C)C)NC(=O)[C@H](Cc3ccccc3)NC2=O)cc1 (some centres not stated) |  |  |  |  |  | Kb [1]: 14 nM; ED300 [2]: 28 µg/kg; Ki [3]: 4.4 nM
2 | CCOc1ccc(C[C@H]2NC(=O)CC3(CCCCC3)SSC[C@@H](C(=O)N3CCC[C@H]3C(=O)N[C@@H](CCCN=C(N)N)C(N)=O)NC(=O)[C@H](CC(N)=O)NC(=O)[C@H](C(C)C)NC(=O)[C@H](Cc3ccccc3)NC2=O)cc1 |  |  | 8.4 | 1302 | 0.07 | 
3 | N=C(N)NCCC[C@H](NC(=O)[C@@H]1CCCN1C(=O)[C@@H]1CSSC[C@H](N)C(=O)N[C@@H](Cc2ccc(O)cc2)C(=O)N[C@@H](Cc2ccccc2)C(=O)N[C@@H](CCC(N)=O)C(=O)N[C@@H](CC(N)=O)C(=O)N1)C(=O)NCC(N)=O [VASOPRESSIN] |  |  |  |  | 1.4 | U osm [7]: 939 mOsmol kg-1
4 | COc1ccc2c(c1)c(CC(=O)O)c(C)n2C(=O)c1ccc(Cl)cc1 [INDOMETHACIN] |  |  |  | 92 | 2.8 | 
5 | CCOc1ccc(C[C@H]2NC(=O)CC3(CCCCC3)SSCC(C(=O)N3CCC[C@@H]3C(=O)N[C@@H](CCCN=C(N)N)C(N)=O)NC(=O)[C@H](CC(N)=O)NC(=O)[C@H](C(C)C)NC(=O)[C@H](Cc3ccccc3)NC2=O)cc1 (some centres not stated) |  | 11.8 |  |  |  | 
6 | CCOc1ccc(C[C@H]2NC(=O)CC3(CCCCC3)CCC[C@@H](C(=O)N3CCC[C@H]3C(=O)N[C@@H](CCCN=C(N)N)C(N)=O)NC(=O)[C@H](CC(N)=O)NC(=O)[C@H](C(C)C)NC(=O)[C@H](Cc3ccccc3)NC2=O)cc1 [listing 2 of 2 here] |  |  | 12.2 |  | 0.69 | U osm [11]: 319 mOsmol kg-1

More lines, main results first:

Row | Ki [8] [nM] | Kb [9] [nM] | Compound | ED300 [4] [µg/kg] | U osm [5] [mOsmol kg-1] | Volume [6] [mL/min] | also measured
7 | 3.9 | 5.1 | CCOc1ccc(C[C@H]2NC(=O)CC3(CCCCC3)CCCC(C(=O)N[C@@H](CCCN=C(N)N)C(=O)N[C@H](CCCN=C(N)N)C(N)=O)NC(=O)[C@H](CC(N)=O)NC(=O)[C@H](C(C)C)NC(=O)[C@H](Cc3ccccc3)NC2=O)cc1 (some centres not stated) | 9 | 56 | 4.6 | 
8 |  | 7.1 | CCOc1ccc(C[C@H]2NC(=O)CC3(CCCCC3)CCCC(C(=O)N3CCC[C@@H]3C(=O)N[C@@H](CCCN=C(N)N)C(N)=O)NC(=O)[C@H](CC(N)=O)NC(=O)[C@H](C(C)C)NC(=O)[C@H](Cc3ccccc3)NC2=O)cc1 (some centres not stated) |  |  |  | 
9 | 2.4 | 5.4 | CCOc1ccc(C[C@H]2NC(=O)CC3(CCCCC3)SSCC(C(=O)N[C@@H](CCCN=C(N)N)C(=O)N[C@H](CCCN=C(N)N)C(N)=O)NC(=O)[C@H](CC(N)=O)NC(=O)[C@H](C(C)C)NC(=O)[C@H](Cc3ccccc3)NC2=O)cc1 (some centres not stated) | 13.5 | 429 | 0.76 | Ki [10]: 1.6 nM
10 | 2.7 |  | CCOc1ccc(C[C@H]2NC(=O)CC3(CCCCC3)CCC[C@@H](C(=O)N3CCC[C@H]3C(=O)N[C@@H](CCCN=C(N)N)C(N)=O)NC(=O)[C@H](CC(N)=O)NC(=O)[C@H](C(C)C)NC(=O)[C@H](Cc3ccccc3)NC2=O)cc1 [listing 1 of 2 here] |  |  |  | Ki [10]: 3.5 nM
11 | 1.5 | 10.2 | CCOc1ccc(C[C@H]2NC(=O)CC3(CCCCC3)SSCC(C(=O)N[C@@H](CCCN=C(N)N)C(N)=O)NC(=O)[C@H](CC(N)=O)NC(=O)[C@H](C(C)C)NC(=O)[C@H](Cc3ccccc3)NC2=O)cc1 (some centres not stated) |  |  |  | Ki [10]: 2.9 nM; ED300 [2]: 58 µg/kg
